Measured values: ChEMBL document CHEMBL5230129, “Antibacterial activities with the structure-activity relationship of coumarin derivatives” (2020)
Converted amounts (≈) assume the structure as drawn.

Columns and labels:
Assay type in all cases: functional
Staphylococcus aureus [1] = assay: Antibacterial activity against Staphylococcus aureus assessed as zone of inhibition incubated for 3 days by cup plate agar diffusion assay; conditions: time 3 day
Bacillus subtilis [2] = assay: Antibacterial activity against Bacillus subtilis assessed as zone of inhibition incubated for 3 days by cup plate agar diffusion assay; conditions: time 3 day
Escherichia coli [3] = assay: Antibacterial activity against Escherichia coli assessed as zone of inhibition incubated for 3 days by cup plate agar diffusion assay; conditions: time 3 day
Pseudomonas aeruginosa [4] = assay: Antibacterial activity against Pseudomonas aeruginosa assessed as zone of inhibition incubated for 3 days by cup plate agar diffusion assay; conditions: time 3 day
Escherichia coli [5] = assay: Antibacterial activity against Escherichia coli 1411 assessed as inhibition of bacterial growth incubated for 24 hrs by two-fold serial dilution method
Escherichia coli [6] = assay: Antibacterial activity against Escherichia coli SM1411 assessed as inhibition of bacterial growth incubated for 24 hrs by two-fold serial dilution method
Escherichia coli [7] = assay: Antibacterial activity against Escherichia coli MTCC 443 assessed as inhibition of bacterial growth incubated for 18 to 20 hrs by broth microdilution assay; conditions: time 18-20 hrs
Staphylococcus aureus [8] = assay: Antibacterial activity against Staphylococcus aureus MTCC 96 assessed as inhibition of bacterial growth incubated for 18 to 20 hrs by broth microdilution assay; conditions: time 18-20 hrs
Staphylococcus aureus [9] = assay: Antibacterial activity against Staphylococcus aureus assessed as inhibition of bacterial growth by broth dilution assay
Bacillus subtilis [10] = assay: Antibacterial activity against Bacillus subtilis assessed as inhibition of bacterial growth by broth dilution assay
Escherichia coli [11] = assay: Antibacterial activity against Escherichia coli ATCC 25922 assessed as zone of inhibition incubated for 24 hrs by paper disk method
Pseudomonas aeruginosa [12] = assay: Antibacterial activity against Pseudomonas aeruginosa ATCC 27853 assessed as zone of inhibition incubated for 24 hrs by paper disk method
Enterococcus faecalis = assay: Antibacterial activity against Enterococcus faecalis PCM 2673 assessed as inhibition of bacterial growth incubated for 24 hrs by microbroth dilution assay
Escherichia coli [13] = assay: Antibacterial activity against Escherichia coli ATCC 8739 assessed as inhibition of bacterial growth incubated for 24 hrs by microbroth dilution assay
Escherichia coli [14] = assay: Antibacterial activity against Escherichia coli NCIM 2256 assessed as inhibition of bacterial growth incubated for 24 hrs by serial twofold dilution assay
Pseudomonas fluorescens = assay: Antibacterial activity against Pseudomonas fluorescens NCIM 2173 assessed as inhibition of bacterial growth incubated for 24 hrs by serial twofold dilution assay
[15] = test system: Sphingomonas paucimobilis; assay: Antibacterial activity against Flavobacterium devorans ATCC 10829 assessed as inhibition of bacterial growth incubated for 24 hrs by serial twofold dilution assay
Staphylococcus aureus [16] = assay: Antibacterial activity against Staphylococcus aureus assessed as inhibition of bacterial growth by broth micro dilution assay
Bacillus = assay: Antibacterial activity against Bacillus assessed as inhibition of bacterial growth by broth micro dilution assay
Escherichia coli [17] = assay: Antibacterial activity against Escherichia coli assessed as inhibition of bacterial growth by broth micro dilution assay
Escherichia coli [18] = assay: Antibacterial activity against Escherichia coli MTCC 40 assessed as zone of inhibition incubated for 24 hrs by well-plate method
Pseudomonas = assay: Antibacterial activity against Pseudomonas assessed as zone of inhibition
Klebsiella pneumoniae = assay: Antibacterial activity against Klebsiella pneumoniae assessed as zone of inhibition incubated for 24 hrs by disk diffusion assay

## Cc1ccc(/C=C/C(=O)c2c(OCc3cnnn3Cc3ccccc3)ccc3c(C)cc(=O)oc23)cc1
Staphylococcus aureus [1]
  inhibition zone (IZ): 17 mm
Bacillus subtilis [2]
  inhibition zone (IZ): 6 mm
Escherichia coli [3]
  inhibition zone (IZ): 14 mm
Pseudomonas aeruginosa [4]
  inhibition zone (IZ): 7 mm

## N[C@@H]1CONC1=O [CYCLOSERINE]
Escherichia coli [5]
  MIC: 16 µg/mL (≈ 157 µM)
Escherichia coli [6]
  MIC: 16 µg/mL (≈ 157 µM)

## COc1cc(/C=C/C(=O)c2c(OCc3cnnn3Cc3ccccc3)ccc3c(C)cc(=O)oc23)cc(OC)c1OC
Staphylococcus aureus [1]
  inhibition zone (IZ): 35 mm
Bacillus subtilis [2]
  inhibition zone (IZ): 15 mm
Escherichia coli [3]
  inhibition zone (IZ): 33 mm
Pseudomonas aeruginosa [4]
  inhibition zone (IZ): 14 mm

## Cc1cc(=O)oc2cc(OC(=O)CNC3N=C(c4ccc(F)cc4)C=C(c4cccc(Br)c4)S3)c([N+](=O)[O-])cc12 (centres undefined)
Escherichia coli [7]
  MIC: 500 µg/mL (≈ 801 µM)
Staphylococcus aureus [8]
  MIC: 100 µg/mL (≈ 160 µM)

## Cc1ccc2cc(-c3cc4cc(Br)ccc4oc3=O)oc2c1
Staphylococcus aureus [9]
  MIC: 3.12 µg/mL (≈ 8.78 µM)
Bacillus subtilis [10]
  MIC: 0.2 µg/mL (≈ 0.563 µM)

## C[C@@H](NC(=O)COc1cc(=O)oc2ccccc12)c1ccccc1
Escherichia coli [11]
  inhibition zone (IZ): 12 mm
Pseudomonas aeruginosa [12]
  inhibition zone (IZ): 10 mm

## Cc1cc(=O)oc2cc(OC(=O)CNC3N=C(c4ccc(F)cc4)C=C(c4ccc(Cl)cc4)S3)c([N+](=O)[O-])cc12 (centres undefined)
Escherichia coli [7]
  MIC: 50 µg/mL (≈ 86.2 µM)
Staphylococcus aureus [8]
  MIC: 250 µg/mL (≈ 431 µM)

## Cc1cc(=O)oc2cc(OC(=O)CNC3N=C(c4ccc(F)cc4)C=C(c4cccc(Oc5ccccc5)c4)S3)c([N+](=O)[O-])cc12 (centres undefined)
Escherichia coli [7]
  MIC: 250 µg/mL (≈ 392 µM)
Staphylococcus aureus [8]
  MIC: 200 µg/mL (≈ 314 µM)

## O=C(N[C@H](CO)[C@H](O)c1ccc([N+](=O)[O-])cc1)C(Cl)Cl [CHLORAMPHENICOL]
Enterococcus faecalis
  MIC: 5 µg/mL (≈ 15.5 µM)
Escherichia coli [13]
  MIC: 1.2 µg/mL (≈ 3.71 µM)
Escherichia coli [7]
  MIC: 50 µg/mL (≈ 155 µM)
Staphylococcus aureus [8]
  MIC: 50 µg/mL (≈ 155 µM)
Escherichia coli [14]
  MIC: 2 µg/mL (≈ 6.19 µM)
Pseudomonas fluorescens
  MIC: 2 µg/mL (≈ 6.19 µM)
[15]
  MIC: 2 µg/mL (≈ 6.19 µM)

## O=c1cc(OCc2cn(-c3ccc(F)cc3)nn2)c2ccccc2o1
Enterococcus faecalis
  MIC: 400 µg/mL (≈ 1190 µM)
Escherichia coli [13]
  MIC: 1600 µg/mL (≈ 4740 µM)

## O=c1oc2ccccc2cc1C1=NNC(c2ccc(-c3ccccc3)c(-c3ccccc3)c2)C1 (centres undefined)
Escherichia coli [5]
  MIC: > 70 µg/mL
Escherichia coli [6]
  MIC: > 70 µg/mL

## O=C(COc1cc(=O)oc2ccccc12)N(c1ccccc1)c1ccccc1
Escherichia coli [11]
  inhibition zone (IZ): 10 mm
Pseudomonas aeruginosa [12]
  inhibition zone (IZ): 12 mm

## Cc1ccc2c(C3NNC(=O)N3)cc(=O)oc2c1C (centres undefined)
Staphylococcus aureus [16]
  MIC: 12.6 µg/mL (≈ 48.6 µM)
Bacillus
  MIC: 3.12 µg/mL (≈ 12 µM)
Escherichia coli [17]
  MIC: 25 µg/mL (≈ 96.4 µM)

## CC1(C)S[C@@H]2[C@H](NC(=O)[C@H](N)c3ccc(O)cc3)C(=O)N2[C@H]1C(=O)O [AMOXICILLIN]
Staphylococcus aureus [1]
  inhibition zone (IZ): 30 mm
Bacillus subtilis [2]
  inhibition zone (IZ): 12 mm
Escherichia coli [3]
  inhibition zone (IZ): 30 mm
Pseudomonas aeruginosa [4]
  inhibition zone (IZ): 10 mm

## Cc1cc(=O)oc2c(C(=O)/C=C/c3ccc(F)cc3)c(OCc3cnnn3Cc3ccccc3)ccc12
Staphylococcus aureus [1]
  inhibition zone (IZ): 27 mm
Bacillus subtilis [2]
  inhibition zone (IZ): 11 mm
Escherichia coli [3]
  inhibition zone (IZ): 27 mm
Pseudomonas aeruginosa [4]
  inhibition zone (IZ): 10 mm

## O=c1oc2ccc3ccccc3c2cc1-c1csc(N/N=C/c2cn(-c3ccccc3)nc2-c2cc3ccccc3oc2=O)n1
Escherichia coli [18]
  inhibition zone (IZ): 21 mm

## Cc1cc(=O)oc2c(C(=O)/C=C/c3ccccc3)c(OCc3cnnn3Cc3ccccc3)ccc12
Staphylococcus aureus [1]
  inhibition zone (IZ): 11 mm
Bacillus subtilis [2]
  inhibition zone (IZ): 8 mm
Escherichia coli [3]
  inhibition zone (IZ): 10 mm
Pseudomonas aeruginosa [4]
  inhibition zone (IZ): 4 mm

## Cc1ccc2cc(-c3cc4ccccc4oc3=O)oc2c1
Staphylococcus aureus [9]
  MIC: 0.2 µg/mL (≈ 0.724 µM)
Bacillus subtilis [10]
  MIC: 0.2 µg/mL (≈ 0.724 µM)

## O=c1oc2ccccc2cc1-c1nn(-c2ccccc2)cc1/C=N/Nc1nc(-c2ccccc2)cs1
Escherichia coli [18]
  inhibition zone (IZ): 19 mm

## Cc1cc(C)c2c(C3NNC(=O)N3)cc(=O)oc2c1 (centres undefined)
Staphylococcus aureus [16]
  MIC: 6.25 µg/mL (≈ 24.1 µM)
Bacillus
  MIC: 6.25 µg/mL (≈ 24.1 µM)
Escherichia coli [17]
  MIC: 50 µg/mL (≈ 193 µM)

## Cc1cc(=O)oc2c(C(=O)/C=C/c3ccc(Cl)cc3)c(OCc3cnnn3Cc3ccccc3)ccc12
Staphylococcus aureus [1]
  inhibition zone (IZ): 25 mm
Bacillus subtilis [2]
  inhibition zone (IZ): 10 mm
Escherichia coli [3]
  inhibition zone (IZ): 23 mm
Pseudomonas aeruginosa [4]
  inhibition zone (IZ): 8 mm

## O=c1cc(-c2nc3ccccc3[nH]2)c2ccc3ccccc3c2o1
Pseudomonas
  inhibition zone (IZ): 4.2 mm

## O=C(COc1cc(=O)oc2ccccc12)NC1CCCCCC1
Escherichia coli [11]
  inhibition zone (IZ): 11 mm
Pseudomonas aeruginosa [12]
  inhibition zone (IZ): 10 mm

## COc1ccc(Nc2nnc(COc3ccc4c(C)cc(=O)oc4c3)s2)cc1
Klebsiella pneumoniae
  inhibition zone (IZ): 15 mm

## C[C@@H](NC(=O)COc1cc(=O)oc2ccccc12)c1cccc2ccccc12
Escherichia coli [11]
  inhibition zone (IZ): 12 mm
Pseudomonas aeruginosa [12]
  inhibition zone (IZ): 14 mm

## Cc1ccc2oc(=O)cc(C3NNC(=O)N3)c2c1 (centres undefined)
Staphylococcus aureus [16]
  MIC: 1.6 µg/mL (≈ 6.52 µM)
Bacillus
  MIC: 0.8 µg/mL (≈ 3.26 µM)
Escherichia coli [17]
  MIC: 0.8 µg/mL (≈ 3.26 µM)

## Cc1ccc2oc(=O)cc(-c3nc4ccccc4[nH]3)c2c1
Pseudomonas
  inhibition zone (IZ): 4.1 mm

## Cc1ccc2c(C3NNC(=O)N3)cc(=O)oc2c1 (centres undefined)
Staphylococcus aureus [16]
  MIC: 1.6 µg/mL (≈ 6.52 µM)
Bacillus
  MIC: 1.6 µg/mL (≈ 6.52 µM)
Escherichia coli [17]
  MIC: 1.6 µg/mL (≈ 6.52 µM)

## O=c1cc(-c2nc3ccccc3[nH]2)c2cc(Br)ccc2o1
Pseudomonas
  inhibition zone (IZ): 4.8 mm

## GENTAMICIN
Klebsiella pneumoniae
  inhibition zone (IZ): 16 mm
